This note sets out measurements from patent publication US10035778B2, “Meta-azacyclic amino benzoic acid derivatives as pan integrin antagonists” (Saint Louis University, priority 2015, dated 2018).

Common to all, as to type: in vivo
Data set [1] can be described thus: IV cassette pharmacokinetic study in female Sprague-Dawley rats (PRESCOS, LLC). The settings on record: plasma; female Sprague-Dawley rat, 1 mg/kg IV cassette, sampling to 8 h (PRESCOS); read-out: plasma t½ after 1 mg/kg iv bolus dose in rat (converted). How it is done:
Similar rat PK studies were conducted by PRESCOS, LLC (San Diego, Calif.) for comparison compounds C19-C28. Female Sprague-Dawley rats with an initial body weight of 195 to 220 g were used. Cassette formulations with 1 mg/kg/compound in 40/60 glycerol formal/saline were administered intravenously to three rats. The dosing volume for each animal was 5 mL/kg body weight. Blood samples were collected via a jugular vein catheter at 0.017, 0.25, 0.5, 1, 2, 4 and 8 hours post-dose into K2EDTA tubes. Animals were euthanized with CO2 at the end of the experiment. Sample processing and compound measurement by LC/MS/MS was performed by HT Laboratories (San Diego, Calif.).

Data set [2] is described as follows: IV cassette pharmacokinetic study in male Sprague-Dawley rats (Saint Louis University). The note with it: plasma; male Sprague-Dawley rat, 1 mg/kg IV cassette, sampling to 24 h; read-out: plasma t½ after 1 mg/kg IV bolus dose in rat (converted). How it is done:
(§1) A minimally sufficient volume of dimethylsulfoxide (DMSO) was added to each test compound to achieve solubilization. For intravenous (IV) delivery, compounds were then formulated as solutions in glycerol formal: saline (either 20:80 or 40:60 v/v) (Sigma Chemicals, St. Louis). For oral (PO) administration, compounds were formulated with 0.5% methylcellulose. Five to six compound solutions were combined into a singled mixed solution for IV and PO cassette administration with final DMSO concentrations <0.6% or <1.2%, for the IV and PO cassettes, respectively. Analytes were detected in test samples using an LC/MS/MS (liquid chromatography/mass spectrometry) system consisting of an LC-20AD pump (Shimadzu, Kyoto, Japan), an HTC PAL autosampler (Leap technologies, Carrboro, N.C.), and a Sciex API-4000 mass spectrometer in ESI mode (AB Sciex, Foster City, Calif.). An Amour C18 reverse phase column (Analytical Sales and Services, Pompton Plains, N.J.) was used for chromatographic separation.
(§2) Pharmacokinetic (PK) studies conducted at Saint Louis University used male Sprague-Dawley rats with an initial body weight of 200 to 220 g. IV PK studies were performed with the following compounds: Examples 1-3 and 5-17 and comparison compounds C12-C18, C29, and C30. Animals were allowed free access to food and water. Rats were individually housed and connected to jugular vein catheters. Each cassette formulation was administered intravenously to two rats (1 mL/kg body weight). Each cassette formulation contained 5-6 compounds at 1 mg/kg in either 20:80 or 40/60 glycerol formal/saline (v/v). Blood was collected manually via the catheter into lithium-heparin tubes at 0.017, 0.083, 0.5, 1, 2, 4, 6 and 24 hours post-dose. Animals were euthanized with CO2 at the end of the experiment.
(§3) Internal standard was added to all samples at 200 ng/mL (final), as well as 150 μL of acetonitrile. Plasma samples (50 μL total volume) were diluted with control nave rat plasma as appropriate to bring the sample measurement into the linear dynamic range of the standard curve. The samples were capped and mixed on a multi-plate vortexer for 5 minutes and centrifuged for 5 minutes at 3200 rmp. The supernant was transferred to 96-well sample plate and capped for LC/MS/MS analysis. Compounds were optimized and monitored for their respective MRM transitions. The mobile phases consisted of 0.1% formic acid (aqueous) and 100% acetonitrile (organic) with an Amour C18 reverse phase column (2.1×30 mm, 5 micron) at a flow rate of 0.35 mL/min. The starting phase was 10% acetonitrile for the 0.9 minutes then increased to 90% acetonitrile over 0.4 minutes, and was maintained for an additional 0.2 minutes before returning to 10% acetonitrile over 0.4 minutes. The 10% acetonitrile was held for an additional 1.6 minutes. Peak areas were integrated using Analyst 1.5.1 (AB Sciex, Foster City, Calif.).

A short description of data set [3]: Oral (PO) cassette pharmacokinetic study in male Sprague-Dawley rats. The settings on record: plasma; male Sprague-Dawley rat, 2 mg/kg oral gavage cassette in 0.5% methylcellulose; read-out: AUC (0-inf) after a 2 mg/kg PO dose in rat. How it is done:
as §1, §2
Oral PK studies were conducted with the following compounds: Examples 1-3 and 5-17 and comparison compounds C12, C14-16 and C29-30. The PO cassette formulations were administered via oral gavage to two rats (10 mL/kg body weight) containing 5-6 compounds per cassette. The oral dose was administered at 2 mg/kg/compound in 0.5% methylcellulose. Blood collection time points were 0.25, 0.5, 1, 2, 4, 6 and 24 hours post-dose into lithium-heparin tubes. Animals were euthanized with CO2 at the end of the experiment.
as §3

For `CC(O)(c1cc([C@H](CC(=O)O)NC(=O)CNC(=O)c2cc(O)cc(NC3=NCC(O)CN3)c2)cc(C(F)(F)F)c1)C(F)(F)F` (stereo partly shown) [Example C27], in data set [1], the half-life was 12.6 min. The same measure, in the same setting: for `CC(C)(C)c1cc(C#N)cc([C@H](CC(=O)O)NC(=O)CNC(=O)c2cc(O)cc(NC3=NCC(O)CN3)c2)c1` (stereo partly shown) [Example C20] the value was 22.8 min. For the molecule `CC(C)(O)c1cc(Br)cc([C@H](CC(=O)O)NC(=O)CNC(=O)c2cc(O)cc(NC3=NCC(O)CN3)c2)c1` (stereo partly shown) [Example C15, reference compound], the half-life in data set [2] is 36 min. In addition, the AUC(0-inf) in data set [3] amounted to 87 ng·h/mL.

In the case of `CC(C)(C)c1cc(Br)cc([C@H](CC(=O)O)NC(=O)CNC(=O)c2cccc(NC3=NCCN3)c2)c1` [Example C18, reference compound], in data set [2], the half-life was 72 min. Take `CC(C)(C)c1cc(Br)cc([C@H](CC(=O)O)NC(=O)CNC(=O)c2cc(O)cc(NC3=NCC(O)CN3)c2)c1` (stereo partly shown) [Example C12, reference compound]: the half-life in data set [2] is 30 min. Besides, the AUC(0-inf) in data set [3] is 205 ng·h/mL.

In the case of `O=C(O)C[C@H](NC(=O)CNC(=O)c1cc(O)cc(NC2=NCC(O)CN2)c1)c1cc(Cl)cc(C2(CF)CCOCC2)c1` (stereo partly shown) [Example C22], in data set [1], the half-life is 18 min.

As to `CC(C)(C)c1cc(Br)cc([C@H](CC(=O)O)NC(=O)CNC(=O)c2cccc(NC(=N)N)c2)c1` [Example C17, reference compound], the half-life in data set [2] is 48 min.

`CC(O)(c1cc(Cl)cc([C@H](CC(=O)O)NC(=O)CNC(=O)c2cc(O)cc(NC3=NCC(O)CN3)c2)c1)C(F)(F)F` (stereo partly shown) [Example C24]: the half-life in data set [1] was 16.8 min.

For `CC(C)(C)c1cc(Br)cc([C@H](CC(=O)O)NC(=O)CNC(=O)c2cc(O)cc(NC3=NCC(O)CN3)c2)c1O` (stereo partly shown) [Example C14, reference compound], in data set [2], the half-life was 60 min. For the same molecule, the AUC(0-inf) in data set [3] turned out to be 224 ng·h/mL.

For the molecule `CC(C)(O)c1cc([C@H](CC(=O)O)NC(=O)CNC(=O)c2cc(O)cc(NC3=NCC(O)CN3)c2)cc(C(F)(F)F)c1` (stereo partly shown) [Example C21], the half-life in data set [1] is 90 min. Still for that read-out and setting: for `N#CC1(c2cc(Cl)cc([C@H](CC(=O)O)NC(=O)CNC(=O)c3cc(O)cc(NC4=NCC(O)CN4)c3)c2)CCC1` (stereo partly shown) [Example C25] the value was 13.8 min; for `CC(C)(c1cc(Cl)cc([C@H](CC(=O)O)NC(=O)CNC(=O)c2cc(O)cc(NC3=NCC(O)CN3)c2)c1)C(F)(F)F` (stereo partly shown) [Example C23], 12.6 min; for `N#CC1(c2cc(Cl)cc([C@H](CC(=O)O)NC(=O)CNC(=O)c3cc(O)cc(NC4=NCC(O)CN4)c3)c2)CCOCC1` (stereo partly shown) [Example C26], 15 min. `O=C(O)C[C@H](NC(=O)CNC(=O)c1cc(O)cc(NC2=NCC(O)CN2)c1)c1ccccc1` (stereo partly shown) [Example C29, reference compound]: in data set [2], the half-life is less than 4.8 min. Further, the AUC(0-inf) in data set [3] was less than 1 ng·h/mL.

As for `CC(C)(C)c1cc(Br)c(O)c([C@H](CC(=O)O)NC(=O)CNC(=O)c2cc(O)cc(NC3=NCC(O)CN3)c2)c1` (stereo partly shown) [Example C13, reference compound], the half-life in data set [2] was 66 min. With `NC(=O)c1cc(Cl)cc([C@H](CC(=O)O)NC(=O)CNC(=O)c2cc(O)cc(NC3=NCC(O)CN3)c2)c1` (stereo partly shown) [Example C30, reference compound], the half-life in data set [2] is 96 min. Moreover, in data set [3], the AUC(0-inf) was less than 1 ng·h/mL. Taken in the same sequence, the figures for `CC(C)(O)c1cc(Cl)cc([C@H](CC(=O)O)NC(=O)CNC(=O)c2cc(O)cc(NC3=NCC(O)CN3)c2)c1` (stereo partly shown) [Example C16, reference compound] were 96 min and 62 ng·h/mL. Turning to `CC(C)(C#N)c1cc(Br)cc([C@H](CC(=O)O)NC(=O)CNC(=O)c2cc(O)cc(NC3=NCC(O)CN3)c2)c1` (stereo partly shown) [Example C19], the half-life in data set [1] was 25.8 min. On the same count and under the same terms, for `O=C(O)C[C@H](NC(=O)CNC(=O)c1cc(O)cc(NC2=NCC(O)CN2)c1)c1cc(Br)cc(C2(C(F)F)CC2)c1` (stereo partly shown) [Example C28] the value was 18 min.
